In patent US20260184691A1, “INHIBITORS AND DEGRADERS OF PIP4K PROTEIN” (Larkspur Biosciences, Inc., priority 2022, published 2026):

Target: T1, endogenous PIP4K2C C-terminally tagged with HiBiT peptide in MOLT-4 cells (Homo sapiens, UniProt Q8TBX8)
T1 construct: to C-terminally tag endogenous PIP4K2C with HiBiT peptide; host or cells: MOLT-4 (CRISPR-Cas9 knock-in clone)
T1 sequence (Q8TBX8 1-421): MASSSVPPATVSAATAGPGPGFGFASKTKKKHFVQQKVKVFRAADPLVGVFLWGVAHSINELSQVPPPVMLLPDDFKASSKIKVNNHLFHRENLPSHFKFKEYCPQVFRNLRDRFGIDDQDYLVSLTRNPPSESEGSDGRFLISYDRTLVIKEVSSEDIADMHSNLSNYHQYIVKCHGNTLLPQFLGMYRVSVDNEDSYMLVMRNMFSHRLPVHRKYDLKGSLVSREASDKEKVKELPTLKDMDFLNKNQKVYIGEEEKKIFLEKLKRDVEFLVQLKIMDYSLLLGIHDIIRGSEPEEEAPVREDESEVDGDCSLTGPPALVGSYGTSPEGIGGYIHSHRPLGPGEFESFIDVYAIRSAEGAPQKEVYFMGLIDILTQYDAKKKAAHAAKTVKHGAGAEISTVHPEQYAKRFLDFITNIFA
Assay: HiBiT PIP4K2C degradation assay in MOLT-4 cells
Type: cell-based
Settings: 24 hours, 10-point dose response, top concentration 10 micromolar, read-out: HiBIT-degradation MOLT4 PIP4k2C 24 hours DC50
Method: Following clonal selection, genotype was confirmed by Sanger sequencing. […] Nano-Glo® HiBiT Lytic Assay System was purchased from Promega (Madison, WI, Catalog number N3030). Cell culture flasks and 384-well microplates were purchased from Corning (Glendale, AZ).
To study PIP4K2C degradation, 384-well plates were plated with a 10-point dose response curve, 3-fold dilution, in duplicate with a top starting concentration of 10 micromolar. Subsequently 22,500 cells were added to each well and incubated at 37C in 5% CO2 for 24 hours. At the end of the incubation time, cells were treated with the Nano-Glo® HiBiT Lytic Detection System following the manufacturer's instructions. Luminescence was measured with a PHERAstar FSX plate reader (BMG Labtech, Cary, NC). The Levenberg-Marquardt algorithm was used to fit a Hill equation to dose-response data to calculate DC50 values (see Table 6).

DC50 [nM] | SMILES
< 500 | O=C1CCC(N2C(=O)c3ccc(OCCCCCCC(=O)N4CCC5(CC4)CCN(c4cncc(Nc6ncc(Cl)c(-c7cccc(-c8ccccc8)c7)n6)c4)C5=O)cc3C2=O)C(=O)N1 (stereo not drawn) [Compound 74, 5-((7-(2-(5-((4-([1,1′-biphenyl]-3-yl)-5-chloropyrimidin-2-yl)amino)pyridin-3-yl)-1-oxo-2,8-diazaspiro[4.5]decan-8-yl)-7-oxoheptyl)oxy)-2-(2,6-dioxopiperidin-3-yl)isoindoline-1,3-dione]
< 500 | O=C1CCC(N2Cc3cc(OCCCCCCCC(=O)N4CCC5(CC4)CCN(c4cncc(Nc6ncc(Cl)c(-c7cccc(-c8ccccc8)c7)n6)c4)C5=O)ccc3C2=O)C(=O)N1 (stereo not drawn) [Compound 63, 3-(5-((8-(2-(5-((4-([1,1′-biphenyl]-3-yl)-5-chloropyrimidin-2-yl)amino)pyridin-3-yl)-1-oxo-2,8-diazaspiro[4.5]decan-8-yl)-8-oxooctyl)oxy)-1-oxoisoindolin-2-yl)piperidine-2,6-dione]
< 500 | O=C1CCC(N2C(=O)c3ccc(OCCCCCC(=O)N4CCC5(CC4)CCN(c4cncc(Nc6ncc(Cl)c(-c7cccc(-c8ccccc8)c7)n6)c4)C5=O)cc3C2=O)C(=O)N1 (stereo not drawn) [Compound 75, 5-((6-(2-(5-((4-([1,1′-biphenyl]-3-yl)-5-chloropyrimidin-2-yl)amino)pyridin-3-yl)-1-oxo-2,8-diazaspiro[4.5]decan-8-yl)-6-oxohexyl)oxy)-2-(2,6-dioxopiperidin-3-yl)isoindoline-1,3-dione]
< 500 | O=C1CCC(N2C(=O)c3ccc(OCCCCC(=O)N4CCC5(CC4)CCN(c4cncc(Nc6ncc(Cl)c(-c7cccc(-c8ccccc8)c7)n6)c4)C5=O)cc3C2=O)C(=O)N1 (stereo not drawn) [Compound 76, 5-((5-(2-(5-((4-([1,1′-biphenyl]-3-yl)-5-chloropyrimidin-2-yl)amino)pyridin-3-yl)-1-oxo-2,8-diazaspiro[4.5]decan-8-yl)-5-oxopentyl)oxy)-2-(2,6-dioxopiperidin-3-yl)isoindoline-1,3-dione]
500 to 1000 | O=C1CCC(N2Cc3cc(OCCCCCCCCCCN4CCC5(CC4)CCN(c4cncc(Nc6ncc(Cl)c(-c7cccc(-c8ccccc8)c7)n6)c4)C5=O)ccc3C2=O)C(=O)N1 (stereo not drawn) [Compound 52, 3-(5-((10-(2-(5-((4-([1,1′-biphenyl]-3-yl)-5-chloropyrimidin-2-yl)amino)pyridin-3-yl)-1-oxo-2,8-diazaspiro[4.5]decan-8-yl)decyl)oxy)-1-oxoisoindolin-2-yl)piperidine-2,6-dione]
< 500 | O=C1CCC(N2Cc3cc(OCCCCCCC(=O)N4CCC5(CC4)CC(=O)N(c4cncc(Nc6ncc(Cl)c(-c7cccc(-c8ccccc8)c7)n6)c4)C5)ccc3C2=O)C(=O)N1 (stereo not drawn) [Compound 166, 3-(5-((7-(2-(5-((4-([1,1′-biphenyl]-3-yl)-5-chloropyrimidin-2-yl)amino)pyridin-3-yl)-3-oxo-2,8-diazaspiro[4.5]decan-8-yl)-7-oxoheptyl)oxy)-1-oxoisoindolin-2-yl)piperidine-2,6-dione]
< 500 | O=C1CCC(N2Cc3cc(NCCCCCC(=O)N4CCC5(CC4)CCN(c4cncc(Nc6ncc(Cl)c(-c7cccc(-c8ccccc8)c7)n6)c4)C5=O)ccc3C2=O)C(=O)N1 (stereo not drawn) [Compound 82, 3-(5-((6-(2-(5-((4-([1,1′-biphenyl]-3-yl)-5-chloropyrimidin-2-yl)amino)pyridin-3-yl)-1-oxo-2,8-diazaspiro[4.5]decan-8-yl)-6-oxohexyl)amino)-1-oxoisoindolin-2-yl)piperidine-2,6-dione]
< 500 | O=C1CCC(N2C(=O)c3cccc(OCCCCCCC(=O)N4CCC5(CC4)CCN(c4cncc(Nc6ncc(Cl)c(-c7cccc(-c8ccccc8)c7)n6)c4)C5=O)c3C2=O)C(=O)N1 (stereo not drawn) [Compound 80, 4-((7-(2-(5-((4-([1,1′-biphenyl]-3-yl)-5-chloropyrimidin-2-yl)amino)pyridin-3-yl)-1-oxo-2,8-diazaspiro[4.5]decan-8-yl)-7-oxoheptyl)oxy)-2-(2,6-dioxopiperidin-3-yl)isoindoline-1,3-dione]

Continued, compound first:

SMILES | DC50 [nM]
O=C1CCC(Nc2ccc(N3CCC(CC(=O)N4CCC5(CC4)CCN(c4cncc(Nc6ncc(Cl)c(N7CCC[C@H](O)C7)n6)c4)C5=O)CC3)cc2)C(=O)N1 (stereo partly drawn) [Compound 175, 3-((4-(4-(2-(2-(5-((5-chloro-4-((S)-3-hydroxypiperidin-1-yl)pyrimidin-2-yl)amino)pyridin-3-yl)-1-oxo-2,8-diazaspiro[4.5]decan-8-yl)-2-oxoethyl)piperidin-1-yl)phenyl)amino)piperidine-2,6-dione] | < 500
O=C1CCC(Nc2ccc(N3CCC(CC(=O)N4CCC5(CC4)CCN(c4cncc(Nc6ncc(Cl)c(N7CCOC(c8ccccc8)C7)n6)c4)C5=O)CC3)cc2)C(=O)N1 (stereo not drawn) [Compound 181, 3-((4-(4-(2-(2-(5-((5-chloro-4-(2-phenylmorpholino)pyrimidin-2-yl)amino)pyridin-3-yl)-1-oxo-2,8-diazaspiro[4.5]decan-8-yl)-2-oxoethyl)piperidin-1-yl)phenyl)amino)piperidine-2,6-dione] | < 500
O=C(COc1cccc2c1C(=O)N(C1CCC(=O)NC1=O)C2=O)NCCCCCCCC(=O)Nc1cncc(Nc2ncc(Cl)c(-c3cccc(-c4ccccc4)c3)n2)c1 (stereo not drawn) [Compound 86, N-(5-((4-([1,1′-biphenyl]-3-yl)-5-chloropyrimidin-2-yl)amino)pyridin-3-yl)-8-(2-((2-(2,6-dioxopiperidin-3-yl)-1,3-dioxoisoindolin-4-yl)oxy)acetamido)octanamide] | < 500
O=C1CCC(Nc2ccc(C3CCN(CC(=O)N4CCC5(CC4)CCN(c4cncc(Nc6ncc(Cl)c(-c7cccc(C8CC8)c7)n6)c4)C5=O)CC3)cc2)C(=O)N1 (stereo not drawn) [Compound 206, 3-[4-[1-[2-[2-[5-[[5-chloro-4-(3-cyclopropylphenyl)pyrimidin-2-yl]amino]-3-pyridyl]-1-oxo-2,8-diazaspiro[4.5]decan-8-yl]-2-oxo-ethyl]-4-piperidyl]anilino]piperidine-2,6-dione] | < 500
CN1CCC(n2cc(-c3nc(Nc4cncc(N5CCC6(CCN(C(=O)CC7CCN(c8ccc(NC9CCC(=O)NC9=O)cc8)CC7)CC6)C5=O)c4)ncc3Cl)cn2)CC1 (stereo not drawn) [Compound 193, 3-((4-(4-(2-(2-(5-((5-chloro-4-(1-(1-methylpiperidin-4-yl)-1H-pyrazol-4-yl)pyrimidin-2-yl)amino)pyridin-3-yl)-1-oxo-2,8-diazaspiro[4.5]decan-8-yl)-2-oxoethyl)piperidin-1-yl)phenyl)amino)piperidine-2,6-dione] | < 500
O=C1CCC(N2Cc3cc(C4CCN(CC(=O)N5CCC6(CC5)CCN(c5cncc(Nc7ncc(Cl)c(-c8cccc(C9CC9)c8)n7)c5)C6=O)CC4)ccc3C2=O)C(=O)N1 (stereo not drawn) [Compound 207, 3-(5-(1-(2-(2-(5-((5-chloro-4-(3-cyclopropylphenyl)pyrimidin-2-yl)amino)pyridin-3-yl)-1-oxo-2,8-diazaspiro[4.5]decan-8-yl)-2-oxoethyl)piperidin-4-yl)-1-oxoisoindolin-2-yl)piperidine-2,6-dione] | < 500
O=C1CCC(N2Cc3cc(C4CCN(C(=O)CN5CCC6(CC5)CCN(c5cncc(Nc7ncc(Cl)c(-c8cccc(C9CC9)c8)n7)c5)C6=O)CC4)ccc3C2=O)C(=O)N1 (stereo not drawn) [Compound 198, 3-(5-(1-(2-(2-(5-((5-chloro-4-(3-cyclopropylphenyl)pyrimidin-2-yl)amino)pyridin-3-yl)-1-oxo-2,8-diazaspiro[4.5]decan-8-yl)acetyl)piperidin-4-yl)-1-oxoisoindolin-2-yl)piperidine-2,6-dione] | < 500
O=C1CCC(Nc2ccc(C3CCN(C(=O)CN4CCC(C(=O)Nc5cncc(Nc6ncc(Cl)c(-c7cccc(C8CC8)c7)n6)c5)CC4)CC3)cc2)C(=O)N1 (stereo not drawn) [Compound 202, N-(5-((5-chloro-4-(3-cyclopropylphenyl)pyrimidin-2-yl)amino)pyridin-3-yl)-1-(2-(4-(4-((2,6-dioxopiperidin-3-yl)amino)phenyl)piperidin-1-yl)-2-oxoethyl)piperidine-4-carboxamide] | < 500
O=C1CCC(Nc2ccc(N3CCC(CC(=O)N4CCC5(CC4)CCN(c4cncc(Nc6ncc(Cl)c(-c7cccc(N8CCCC8)c7)n6)c4)C5=O)CC3)cc2)C(=O)N1 (stereo not drawn) [Compound 184, 3-((4-(4-(2-(2-(5-((5-chloro-4-(3-(pyrrolidin-1-yl)phenyl)pyrimidin-2-yl)amino)pyridin-3-yl)-1-oxo-2,8-diazaspiro[4.5]decan-8-yl)-2-oxoethyl)piperidin-1-yl)phenyl)amino)piperidine-2,6-dione] | < 500
Cn1c(=O)n(C2CCC(=O)NC2=O)c2ccc(C3CCN(C(=O)CN4CCC5(CC4)CCN(c4cncc(Nc6ncc(Cl)c(-c7cccc(C8CC8)c7)n6)c4)C5=O)CC3)cc21 (stereo not drawn) [Compound 208, 3-[5-[1-[2-[2-[5-[[5-chloro-4-(3-cyclopropylphenyl)pyrimidin-2-yl]amino]-3-pyridyl]-1-oxo-2,8-diazaspiro[4.5]decan-8-yl]acetyl]-4-piperidyl]-3-methyl-2-oxo-benzimidazol-1-yl]piperidine-2,6-dione] | < 500
